pKi: −log10 of the molar value.
What was measured:
human σ2/TMEM97 receptor = target: T1, human σ2/TMEM97 receptor (Homo sapiens, UniProt Q5BJF2); experiment: Binding assay to human σ2/TMEM97 receptor ([3H]-DTG, transfected HEK-293 membranes); conditions: class scale, read-out: Binding σ-2 Ki
T1 construct: expressed in transfected cells; host or cells: HEK-293
Method in brief: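 Competition against 10 nM [3H]-DTG (Tris-HCl 50 mM, pH 8.0, 25 °C, 120 min) using 15 μg transfected HEK-293 membrane protein, with 10 μM haloperidol defining NSB. Bound radioactivity counted after filtration; results as single-point % inhibition (1 or 10 μM) or five-point Ki.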

human σ1 receptor = target: T2, human σ1 receptor (Homo sapiens, UniProt Q99720); experiment: Human σ1 receptor radioligand assay ([3H](+)-pentazocine, transfected HEK-293 membranes); conditions: class scale, read-out: Binding σ-1 Ki
T2 construct: expressed in transfected cells; host or cells: HEK-293
Method in brief: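 Compounds were tested at a single 1 or 10 μM concentration (% inhibition) or at five concentrations to give Ki. They competed with 5 nM [3H](+)-pentazocine for transfected HEK-293 membranes (7 μg) in 50 mM Tris-HCl pH 8 at 37° C for 120 minutes. Nonspecific binding was set with 10 μM haloperidol, and a filtration scintillation read-out was used.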

T1 sequence (Q5BJF2 whole entry): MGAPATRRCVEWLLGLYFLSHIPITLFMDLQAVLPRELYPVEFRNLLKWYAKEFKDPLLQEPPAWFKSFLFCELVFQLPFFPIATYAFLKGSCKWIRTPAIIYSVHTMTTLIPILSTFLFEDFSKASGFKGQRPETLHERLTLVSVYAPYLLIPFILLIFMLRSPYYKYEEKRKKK
T2 sequence (Q99720 whole entry): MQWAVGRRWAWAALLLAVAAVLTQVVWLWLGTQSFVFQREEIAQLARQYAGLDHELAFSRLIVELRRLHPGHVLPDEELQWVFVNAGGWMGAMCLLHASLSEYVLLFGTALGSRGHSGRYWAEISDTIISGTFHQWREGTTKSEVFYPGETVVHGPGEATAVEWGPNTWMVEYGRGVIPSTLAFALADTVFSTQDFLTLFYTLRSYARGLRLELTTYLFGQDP

SMILES: CCn1nc(-c2cnn(C(C)C)c2)c(C(=O)N2CCC3(CCN(CCC(C)(C)C)CC3)CC2)c1Cl [Example 198, (5-Chloro-1-ethyl-1′-isopropyl-1H,1′H-[3,4′-bipyrazol]-4-yl)(9-(3,3-dimethylbutyl)-3,9-diazaspiro[5.5]undecan-3-yl)methanone]
- pKi (human σ2/TMEM97 receptor): > 7.00
- pKi (human σ1 receptor): 6.00 to 6.30

SMILES: CCc1nc(C)c(-c2nn(C)c(Cl)c2C(=O)N2CCCC3(CCN(CCC(C)(C)C)CC3)C2)o1 [Example 133, (5-Chloro-3-(2-ethyl-4-methyloxazol-5-yl)-1-methyl-1H-pyrazol-4-yl)(9-(3,3-dimethylbutyl)-2,9-diazaspiro[5.5]undecan-2-yl)methanone]
- pKi (human σ2/TMEM97 receptor): > 7.00
- pKi (human σ1 receptor): 6.00 to 6.30

SMILES: Cc1cc(-c2nn(C)c(Cl)c2C(=O)N2CCC3(CCN(Cc4ccc(F)cc4)CC3)CC2)no1 [Example 129, (5-Chloro-1-methyl-3-(5-methylisoxazol-3-yl)-1H-pyrazol-4-yl)(9-(4-fluorobenzyl)-3,9-diazaspiro[5.5]undecan-3-yl)methanone]
- pKi (human σ2/TMEM97 receptor): > 7.00
- pKi (human σ1 receptor): 6.30 to 7.00

SMILES: Cc1cc(-c2nn(C)c(Cl)c2C(=O)N2CCC3(CCC(NCCC(C)(C)C)CC3)CC2)no1 [Example 96, (5-Chloro-1-methyl-3-(5-methylisoxazol-3-yl)-1H-pyrazol-4-yl)(9-((3,3-dimethylbutyl)amino)-3-azaspiro[5.5]undecan-3-yl)methanone]
- pKi (human σ2/TMEM97 receptor): 6.30 to 7.00
- pKi (human σ1 receptor): < 6.00

SMILES: Cc1cccc(-c2nn(C)c(Cl)c2CN2CC3(CCN(CCC(C)(C)C)CC3)CC2=O)n1 [Example 228, 2-((5-Chloro-1-methyl-3-(6-methylpyridin-2-yl)-1H-pyrazol-4-yl)methyl)-8-(3,3-dimethylbutyl)-2,8-diazaspiro[4.5]decan-3-one]
- pKi (human σ2/TMEM97 receptor): 6.30 to 7.00
- pKi (human σ1 receptor): 6.30 to 7.00

SMILES: CC(C)CCNC1CCCCN(Cc2c(-c3ccccn3)nn(C)c2Cl)C1 (stereo not shown) [Example 26, 1-((5-Chloro-1-methyl-3-(pyridin-2-yl)-1H-pyrazol-4-yl)methyl)-N-isopentylazepan-3-amine]
- pKi (human σ2/TMEM97 receptor): < 6.00
- pKi (human σ1 receptor): 6.00 to 6.30

SMILES: Cn1nc(-c2ccccn2)c(CN2CCCCC(NCCC(C)(C)C)C2)c1Cl (stereo not shown) [Example 25, 1-((5-Chloro-1-methyl-3-(pyridin-2-yl)-1H-pyrazol-4-yl)methyl)-N-(3,3-dimethylbutyl)azepan-3-amine]
- pKi (human σ2/TMEM97 receptor): < 6.00
- pKi (human σ1 receptor): > 7.00

SMILES: Cc1cccc(-c2nn(C)c(Cl)c2C(=O)NC2CC3(CCN(CCC(C)(C)C)CC3)C2)n1 [Example 141, 5-Chloro-N-(7-(3,3-dimethylbutyl)-7-azaspiro[3.5]nonan-2-yl)-1-methyl-3-(6-methylpyridin-2-yl)-1H-pyrazole-4-carboxamide]
- pKi (human σ2/TMEM97 receptor): > 7.00
- pKi (human σ1 receptor): > 7.00

SMILES: CCn1nc(-c2ccnc(C)c2)c(C(=O)N2CCC3(CCN(CCC(C)(C)C)CC3)CC2)c1Cl [Example 207, (5-Chloro-1-ethyl-3-(2-methylpyridin-4-yl)-1H-pyrazol-4-yl)(9-(3,3-dimethylbutyl)-3,9-diazaspiro[5.5]undecan-3-yl)methanone]
- pKi (human σ2/TMEM97 receptor): > 7.00
- pKi (human σ1 receptor): 6.30 to 7.00

SMILES: CC(C)CCNC1CCCCN(Cc2c(-c3cc(C(C)C)on3)nn(C)c2Cl)C1 (stereo not shown) [Example 17, 1-((5-Chloro-3-(5-isopropylisoxazol-3-yl)-1-methyl-1H-pyrazol-4-yl)methyl)-N-isopentylazepan-3-amine]
- pKi (human σ2/TMEM97 receptor): < 6.00
- pKi (human σ1 receptor): 6.30 to 7.00

SMILES: CCn1nc(-c2ccon2)c(CC(=O)NC2CCN(CCC(C)(C)C)CC2)c1Cl [Example 221, 2-(5-Chloro-1-ethyl-3-(isoxazol-3-yl)-1H-pyrazol-4-yl)-N-(1-(3,3-dimethylbutyl)piperidin-4-yl)acetamide]
- pKi (human σ2/TMEM97 receptor): > 7.00
- pKi (human σ1 receptor): > 7.00

SMILES: CCn1nc(-c2cccc(C(F)(F)F)n2)c(C(=O)N2CCC3(CCN(CCC(C)(C)C)CC3)CC2)c1Cl [Example 199, (5-Chloro-1-ethyl-3-(6-(trifluoromethyl)pyridin-2-yl)-1H-pyrazol-4-yl)(9-(3,3-dimethylbutyl)-3,9-diazaspiro[5.5]undecan-3-yl)methanone]
- pKi (human σ2/TMEM97 receptor): > 7.00
- pKi (human σ1 receptor): 6.30 to 7.00

SMILES: Cc1cc(-c2nn(C)c(Cl)c2C(=O)N2CCCCC(NCc3ccccc3)C2)no1 (stereo not shown) [Example 86, (3-(Benzylamino)azepan-1-yl)(5-chloro-1-methyl-3-(5-methylisoxazol-3-yl)-1H-pyrazol-4-yl)methanone]
- pKi (human σ2/TMEM97 receptor): 6.30 to 7.00
- pKi (human σ1 receptor): < 6.00

SMILES: Cc1cc(-c2nn(C)c(Cl)c2CN2CCC3(CCN(CCC(C)(C)C)CC3)CC2)no1 [Example 53, 3-(5-Chloro-4-((9-(3,3-dimethylbutyl)-3,9-diazaspiro[5.5]undecan-3-yl)methyl)-1-methyl-1H-pyrazol-3-yl)-5-methylisoxazole]
- pKi (human σ2/TMEM97 receptor): > 7.00
- pKi (human σ1 receptor): 6.30 to 7.00

SMILES: Cc1cc(-c2nn(C)c(Cl)c2CN2CCC(CN(CC(C)C)CC(C)C)C2)no1 (stereo not shown) [Example 42, N-((1-((5-Chloro-1-methyl-3-(5-methylisoxazol-3-yl)-1H-pyrazol-4-yl)methyl)pyrrolidin-3-yl)methyl)-/-isobutyl-2-methylpropan-1-amine]
- pKi (human σ2/TMEM97 receptor): 6.30 to 7.00
- pKi (human σ1 receptor): < 6.00

SMILES: CCn1nc(-c2ccon2)c(CC(=O)N2CCC3(CCN(CCC(C)(C)C)CC3)CC2)c1Cl [Example 209, 2-(5-Chloro-1-ethyl-3-(isoxazol-3-yl)-1H-pyrazol-4-yl)-1-(9-(3,3-dimethylbutyl)-3,9-diazaspiro[5.5]undecan-3-yl)ethan-1-one]
- pKi (human σ2/TMEM97 receptor): > 7.00
- pKi (human σ1 receptor): > 7.00

SMILES: Cc1cc(-c2nn(C)c(Cl)c2C(=O)N2CCCC(CNCCC(C)(C)C)C2)no1 (stereo not shown) [Example 83, (5-Chloro-1-methyl-3-(5-methylisoxazol-3-yl)-1H-pyrazol-4-yl)(3-(((3,3-dimethylbutyl)amino)methyl)piperidin-1-yl)methanone]
- pKi (human σ2/TMEM97 receptor): > 7.00
- pKi (human σ1 receptor): 6.00 to 6.30

SMILES: Cc1cc(-c2nn(C)c(Cl)c2C(=O)N2CCC3(CCN(CCC(C)(C)C)CC3)CC2)no1 [Example 88, (5-Chloro-1-methyl-3-(5-methylisoxazol-3-yl)-1H-pyrazol-4-yl)(9-(3,3-dimethylbutyl)-3,9-diazaspiro[5.5]undecan-3-yl)methanone]
- pKi (human σ2/TMEM97 receptor): > 7.00
- pKi (human σ1 receptor): 6.00 to 6.30

SMILES: Cn1cc(-c2nn(C)c(Cl)c2C(=O)N2CCC3(CCN(CCC(C)(C)C)CC3)CC2)cn1 [Example 178, (5-Chloro-1,1′-dimethyl-1H,1′H-[3,4′-bipyrazol]-4-yl)(9-(3,3-dimethylbutyl)-3,9-diazaspiro[5.5]undecan-3-yl)methanone]
- pKi (human σ2/TMEM97 receptor): 6.30 to 7.00
- pKi (human σ1 receptor): < 6.00

SMILES: CCn1nc(-c2ccon2)c(C(=O)NC2CCC3(CC2)CCN(CCC(C)(C)C)CC3)c1Cl [Example 142, 5-Chloro-N-(3-(3,3-dimethylbutyl)-3-azaspiro[5.5]undecan-9-yl)-1-ethyl-3-(isoxazol-3-yl)-1H-pyrazole-4-carboxamide]
- pKi (human σ2/TMEM97 receptor): > 7.00
- pKi (human σ1 receptor): > 7.00

SMILES: Cc1conc1-c1nn(C)c(Cl)c1CN1CCCCC(NCCC(C)(C)C)C1 (stereo not shown) [Example 27, 1-((5-Chloro-1-methyl-3-(4-methylisoxazol-3-yl)-1H-pyrazol-4-yl)methyl)-N-(3,3-dimethylbutyl)azepan-3-amine]
- pKi (human σ2/TMEM97 receptor): > 7.00
- pKi (human σ1 receptor): 6.30 to 7.00

SMILES: Cc1cc(-c2nn(C)c(Cl)c2CN2CCC3(C2)CN(CCc2ccccc2)C3)no1 [Example 61, 3-(5-Chloro-1-methyl-4-((2-phenethyl-2,6-diazaspiro[3.4]octan-6-yl)methyl)-1H-pyrazol-3-yl)-5-methylisoxazole]
- pKi (human σ2/TMEM97 receptor): > 7.00
- pKi (human σ1 receptor): 6.30 to 7.00

SMILES: Cc1onc(-c2nn(C)c(Cl)c2CN2CCCCC(NCCC(C)(C)C)C2)c1C (stereo not shown) [Example 38, 1-((5-Chloro-3-(4,5-dimethylisoxazol-3-yl)-1-methyl-1H-pyrazol-4-yl)methyl)-N-(3,3-dimethylbutyl)azepan-3-amine]
- pKi (human σ2/TMEM97 receptor): 6.30 to 7.00
- pKi (human σ1 receptor): 6.30 to 7.00

SMILES: CCn1nc(-c2cc(C)on2)c(C(=O)NC2CCC3(CC2)CCN(CCC(C)(C)C)CC3)c1Cl [Example 143, 5-Chloro-N-(3-(3,3-dimethylbutyl)-3-azaspiro[5.5]undecan-9-yl)-1-ethyl-3-(5-methylisoxazol-3-yl)-1H-pyrazole-4-carboxamide]
- pKi (human σ2/TMEM97 receptor): > 7.00
- pKi (human σ1 receptor): > 7.00

SMILES: Cc1cc(-c2nn(C)c(Cl)c2CN2CCC[C@H](NCCc3ccccc3)C2)no1 [Example 7, (S)-1-((5-Chloro-1-methyl-3-(5-methylisoxazol-3-yl)-1H-pyrazol-4-yl)methyl)-N-phenethylpiperidin-3-amine]
- pKi (human σ2/TMEM97 receptor): < 6.00
- pKi (human σ1 receptor): 6.30 to 7.00

SMILES: Cn1nc(-c2cccc(C(F)(F)F)n2)c(C(=O)N2CCC3(CCN(CCC(C)(C)C)CC3)CC2)c1Cl [Example 180, (5-Chloro-1-methyl-3-(6-(trifluoromethyl)111ndecane-2-yl)-1H-pyrazol-4-yl)(9-(3,3-dimethylbutyl)-3,9-diazaspiro[5.5]111ndecane-3-yl)methanone]
- pKi (human σ2/TMEM97 receptor): > 7.00
- pKi (human σ1 receptor): 6.30 to 7.00

SMILES: CCn1nc(-c2cc(C)on2)c(C(=O)NC2CCC3(CC2)CN(CCC(C)(C)C)C3)c1Cl [Example 134, 5-Chloro-N-(2-(3,3-dimethylbutyl)-2-azaspiro[3.5]nonan-7-yl)-1-ethyl-3-(5-methylisoxazol-3-yl)-1H-pyrazole-4-carboxamide]
- pKi (human σ2/TMEM97 receptor): > 7.00
- pKi (human σ1 receptor): > 7.00

SMILES: CCn1nc(-c2cc(C)on2)c(C(=O)Nc2ccc3c(c2)CCN(CCC(C)(C)C)C3)c1Cl [Example 204, 5-Chloro-N-(2-(3,3-dimethylbutyl)-1,2,3,4-tetrahydroisoquinolin-6-yl)-1-ethyl-3-(5-methylisoxazol-3-yl)-1H-pyrazole-4-carboxamide]
- pKi (human σ2/TMEM97 receptor): > 7.00
- pKi (human σ1 receptor): > 7.00

SMILES: Cn1nc(-c2cccc(C(F)(F)F)n2)c(CC(=O)NC2CCN(CCC(C)(C)C)CC2)c1Cl [Example 222, 2-(5-Chloro-1-methyl-3-(6-(trifluoromethyl)pyridin-2-yl)-1H-pyrazol-4-yl)-N-(1-(3,3-dimethylbutyl)piperidin-4-yl)acetamide]
- pKi (human σ2/TMEM97 receptor): > 7.00
- pKi (human σ1 receptor): > 7.00
